{"source": "paper PMC4019984", "about": "“Kinase and channel activity of TRPM6 are co-ordinated by a dimerization motif and pocket interaction” (Biochemical Journal, 2014)", "key": {"TRPM6-(1730–end)": {"target": "T1, TRPM6-(1730–end) (Homo sapiens, UniProt Q9BX84)", "T1 construct": "expressed in transfected cells; host or cells: HEK-293", "T1 sequence (Q9BX84 1730-2022 limits assumed)": "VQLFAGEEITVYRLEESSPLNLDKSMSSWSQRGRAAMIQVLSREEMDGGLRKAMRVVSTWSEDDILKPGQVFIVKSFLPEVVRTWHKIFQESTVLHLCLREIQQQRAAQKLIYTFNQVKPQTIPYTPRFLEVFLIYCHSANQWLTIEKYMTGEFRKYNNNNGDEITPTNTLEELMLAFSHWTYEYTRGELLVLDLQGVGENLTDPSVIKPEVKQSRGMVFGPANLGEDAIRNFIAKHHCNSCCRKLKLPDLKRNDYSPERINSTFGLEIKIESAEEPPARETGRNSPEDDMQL", "assay": "Kinase activation assay (MBP substrate), TRPM6-(1730–end)", "type": "biochemical", "conditions": "FLAG-tagged TRPM6-(1730–end) immunoprecipitated from HEK-293; MBP 1 μg, 0.1 mM [γ-32P]ATP, 10 mM MgCl2, 30 min at 30°C; increasing peptide concentrations; read-out: half-maximal activation", "protocol": "In assays using E. coli-expressed TRPM6, reactions were set up in a volume of 20 μl, with substrate MBP (myelin basic protein) at 1 μg and kinase at 0.1–10 μg in buffer A containing 0.1% 2-mercaptoethanol, 10 mM MgCl2 and 0.1 mM [γ-^32P]ATP (~1000 cpm·pmol^−1). Assays were carried out for 30 min at 30°C with shaking at 1000 rev./min and terminated by addition of SDS sample buffer. […] Proteins were detected by Coomassie Blue staining and gels were imaged using an Epson scanner and dried completely using a gel dryer (Bio-Rad Laboratories). Incorporation of [γ-^32P]ATP into substrates was analysed by autoradiography using Hyperfilm (GE Healthcare) or quantified by Cerenkov counting.\nFigure 2 Identification of dimerization motif residues in TRPM6 (A) Structural model of TRPM7 α-kinase depicting the N-terminal non-catalytic α-helix of one monomer that interacts with the kinase segment of the other monomer. (B) Fluorescence polarization analysis of wild-type (WT) and mutant (Mut) dimerization motif peptides with E. coli-purified GST-tagged TRPM6-(1730–end). […] The samples were analysed by immunoblotting with anti-GST antibody (top panel). […] Proteins were separated by SDS/PAGE, stained with Coomassie Blue (top and middle gels) and MBP phosphorylation was detected by autoradiography (bottom gel). […] The pull-down samples were analysed by immunoblotting with anti-FLAG antibody (top panel). […]"}, "[1]": {"target": "T2, GST-tagged TRPM6-(1730–end) (Homo sapiens, UniProt Q9BX84)", "T2 construct": "E. coli-purified GST-tagged TRPM6-(1730–end); made in house; host or cells: E. coli BL21", "T2 sequence (Q9BX84 1730-2022 limits assumed)": "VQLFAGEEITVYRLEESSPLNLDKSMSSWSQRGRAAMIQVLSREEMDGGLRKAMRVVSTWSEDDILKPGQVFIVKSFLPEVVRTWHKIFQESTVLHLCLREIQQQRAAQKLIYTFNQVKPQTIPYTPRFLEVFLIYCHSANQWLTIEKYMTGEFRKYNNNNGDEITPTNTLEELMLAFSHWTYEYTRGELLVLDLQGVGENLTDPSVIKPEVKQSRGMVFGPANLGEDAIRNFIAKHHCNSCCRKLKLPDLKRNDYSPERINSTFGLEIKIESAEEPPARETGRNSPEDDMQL", "assay": "Fluorescence polarization binding assay, TRPM6-(1730–end)", "conditions": "100 nM labelled peptide, increasing concentrations of TRPM6-(1730–end), pH 7.5, room temperature", "protocol": "The peptides used for the assay contained a C-terminal linker leading to the peptides […] (wild-type) and […] (mutant). The peptides were labelled with Lumio Green (Invitrogen) following the manufacturer's protocol. Fluorescence polarization measurements were performed at room temperature in buffer containing 25 mM Tris/HCl (pH 7.5), 200 mM NaCl and 5 mM 2-mercaptoethanol. Binding assays were performed by combining 100 nM labelled peptide with increasing concentrations of TRPM6 kinase, in a total volume of 30 μl of buffer, and end-point polarization measurements were made using the BMG PheraStar plate reader. The polarization values were measured at an excitation wavelength of 485 nm and an emission wavelength of 538 nm, and were corrected for fluorescent probe alone. At least ten data points were measured for each curve, and each data point was measured in duplicate. Data were analysed using GraphPad Prism 5 and curve-fitting of the data from two independent experiments was performed with one-site specific binding with Hill slope [model Y=BmaxX^h/(Kd^h+X^h)] to determine Kd values.\n(Figure 2A). We next utilized fluorescence polarization technology, a sensitive method to evaluate interactions between proteins and peptides. […]"}, "[2]": {"target": "T3, GST-tagged TRPM6-(1730–end), E. coli-purified, Q9BX84", "T3 chain": "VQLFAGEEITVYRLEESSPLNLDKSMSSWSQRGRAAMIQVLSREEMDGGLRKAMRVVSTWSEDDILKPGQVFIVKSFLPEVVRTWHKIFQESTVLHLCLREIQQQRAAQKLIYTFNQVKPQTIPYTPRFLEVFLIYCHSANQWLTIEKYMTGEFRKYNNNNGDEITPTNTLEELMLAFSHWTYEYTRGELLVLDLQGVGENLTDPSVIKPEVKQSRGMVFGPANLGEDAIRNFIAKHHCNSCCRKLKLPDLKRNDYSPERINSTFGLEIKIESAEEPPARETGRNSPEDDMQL", "assay": "fluorescence polarisation", "conditions": "chain shown with the change; read at the highest titration point, 2.5 µM TRPM6-(1730-end); parent: est. 94; read off a plot"}}}
{"molecule": "CC[C@H](C)[C@H](NC(=O)[C@H](C)NC(=O)[C@H](CO)NC(=O)[C@H](Cc1ccc(O)cc1)NC(=O)[C@H](Cc1c[nH]cn1)NC(=O)[C@H](Cc1c[nH]cn1)NC(=O)[C@H](Cc1c[nH]cn1)NC(=O)[C@@H]1CCCN1C(=O)[C@H](CCC(=O)O)NC(=O)[C@H](CCC(N)=O)NC(=O)[C@@H]1CCCN1C(=O)[C@H](CO)NC(=O)[C@H](CCCCN)NC(=O)[C@@H](N)CC(C)C)C(=O)N[C@@H](CCC(=O)O)C(=O)N[C@@H](CCCNC(=N)N)C(=O)N[C@@H](CC(N)=O)C(=O)N[C@@H](CC(N)=O)C(=O)N[C@@H](CC(C)C)C(=O)N[C@@H](CCSC)C(=O)N[C@@H](CCCNC(=N)N)C(=O)N[C@@H](CC(C)C)C(=O)N[C@@H](CO)C(=O)N[C@@H](CCC(N)=O)C(=O)N[C@H](C(=O)N[C@H](C(=O)N1CCC[C@H]1C(=O)N[C@@H](Cc1ccccc1)C(=O)N[C@H](C(=O)N1CCC[C@H]1C(=O)N[C@H](C(=O)N[C@@H](CCC(N)=O)C(=O)N[C@@H](CC(C)C)C(=O)N[C@@H](Cc1ccccc1)C(=O)N[C@@H](C)C(=O)NCC(=O)N[C@@H](CCC(=O)O)C(=O)N[C@@H](CCC(=O)O)C(=O)N[C@H](C(=O)N[C@H](C(=O)N[C@H](C(=O)O)C(C)C)[C@@H](C)O)[C@@H](C)CC)C(C)C)[C@@H](C)O)[C@@H](C)CC)[C@@H](C)O", "note": "[dimerization motif peptide]", "values": [{"measurement": "EC50", "setting": "TRPM6-(1730–end)", "result": "~15", "unit": "µM"}]}
{"molecule": "LKSPQEPHHHYSAIERNNAMRASQTIPFTPVQLFAGEEITVGGCCPGCC [mutant dimerization motif peptide, mutant (L1718A+L1721A) dimerization motif peptide with C-terminal linker, labelled with Lumio Green]", "values": [{"measurement": "fluorescence polarization increase (binding)", "setting": "[1]", "result": "only background increases in fluorescence polarization were observed"}]}
{"molecule": "LKSPQEPHHHYSAIERNNAMRASQTIPFTPVQLFAGEEITVGGCCPGCC", "values": [{"measurement": "response", "setting": "[2]", "result": 24, "unit": "mP"}]}
